Legend:
[1] = target: recombinant human Cdc7/DBF4 (Homo sapiens, UniProt O00311); assay: LanthaScreen Eu Kinase Inhibition Assay (Cdc7 inhibition); type: binding; settings: recombinant human Cdc7/DBF4 0.5 nM, 60 min room temperature, 1% DMSO; read-out: Cdc7 CI50
Description: The LanthaScreen Eu Kinase Inhibition Assay uses an Alexa Fluor™ marker which binds to a kinase and is detected by the addition of an Eu-labelled antibody. The binding of the marker and the antibody to the kinase results in a high degree of FRET, whereas the displacement of the marker by an inhibitor results in a loss of FRET. Unlike many other kinase activity assays, this is a simple mix and read assay, without stages of development. This assay method has been developed by “Life Technologies” and they identify competitive ATP kinase inhibitors, making them suitable for the detection of any compound which binds to the ATP site.
The compounds are evaluated in 1% DMSO (final) in the well. A mixture of recombinant human Cdc7/DBF4 (0.5 nM), Eu-anti-GST antibody (2 nM) and Alexa Fluor marker (1 nM) in a buffer of 50 mM HEPES pH 7.5, 0.01% BRIJ-35, 10 mM MgCl2, 1 mM EGTA was used. In white plates with […], with a low volume, and coded (Greiner cat. #784207), 160 nL (100×compound in 100% DMSO), 3.84 μl (buffer with Cdc7/DBF4), […] (antibody), 4.0 μl (marker) are added. It is stirred for 30 s and incubated at room temperature for 60 min. Next, the fluorescence is measured in the plate reader and the data is analysed (Table 1).

[2] = PAMPA-BBB permeability (porcine brain lipid artificial membrane); type: in vitro ADME; parameters: key to PAMPA prediction of the penetration into the central nervous system (CNS): permeable to the BBB (CNS+) if it has a permeability >4.48×10^−6 cm·s^−1; CNS+/−: located in the zone of uncertainty; settings: for Papp at 2.5 h: pig, PAMPA, porcine brain lipid, PBS pH 7.4/EtOH 70:30, 2 h 30 min at 25° C., mean ± SD, read-out: Pe (permeability, PAMPA-BBB); for PAMPA prediction of the penetration into the central nervous system (CNS): prediction from Pe, PAMPA-BBB
Description: An essential requirement that must be met by drugs for the treatment of neurodegenerative diseases is the ability to cross the blood-brain barrier (BBB) since, otherwise, they could not act on the target of interest. Therefore, for the compounds that are non-permeable or located in the zone of uncertainty, it could be necessary for them to be suitably conveyed in a pharmaceutical formulation by means of methods known by those skilled in the art, such as by means of encapsulation. This ability can be predicted in vitro by using a method known by the acronym PAMPA (Parallel Artificial Membrane Permeability Assay) described by Di et al. (Di, L.; Kerns, E. H.; Fan, K.; McConnell, O. J.; Carter, G. T. Eur. J. Med. Chem., 2003, 38 (3), 223-232) and that has subsequently been fine-tuned in our research group. Said method enables the effective permeability through artificial membranes to be predicted by means of a passive diffusion process.
First, it is necessary to validate the method, for which reason 10 commercial compounds, whose ability to penetrate the central nervous system (CNS) is known, are used and will be specified below, obtaining in this case good linear correlation between the experimental permeability values (Pe) and those described (FIG. 1). This correlation line obtained following the pattern described in the literature makes it possible to establish the limits for predicting whether a compound can cross the blood-brain barrier or not. Thus, a compound is considered to be permeable to the BBB (CNS+) if it has a permeability >4.48×10^−6 cm·s^−1.
For the procedure, between 3-5 mg of caffeine, desipramine, enoxacin, hydrocortisone, ofloxacin, piroxicam and testosterone, 12 mg of promazine and 25 mg of atenolol and verapamil were taken and dissolved in EtOH (1000 μl). 100 μl of these solutions were taken and EtOH (1400 μl) and phosphate buffer (PBS) pH=7.4 (3500 μl) were added in order to reach a final EtOH concentration of 30% v/v in solution. Lastly, the solutions were filtered.
Moreover, a solution of PBS/EtOH (70:30) was added to each well of the acceptor plate (180 μl). The donor plate was impregnated with a solution of porcine brain lipid (4 μl) dissolved in dodecane (20 mg·ml^−1). After 5 min, a solution of each compound was added on this plate (180 μl).
Of the compounds evaluated, between 1-2 mg were taken and dissolved in EtOH (1500 μl) and phosphate buffer (PBS) pH=7.4 (3500 μl), filtered and added to the donor plate. With these solutions, the wavelengths at which they absorb the compounds are determined and the initial absorbance levels at these wavelengths are measured by using a UV absorbance reader. Each sample was analysed at two to five wavelengths, in three wells and in two independent experiments.
Next, the donor plate was deposited on the acceptor plate forming a sort of “sandwich” and they were left to incubate for 2 h and 30 min at 25° C. Thus, the compounds will pass from the donor plate to the acceptor plate through the porcine brain lipid by means of passive diffusion. After that time, the donor plate is carefully removed and the final concentration and absorbance of both the commercial and the synthesised compounds are determined. The results obtained are expressed as the mean of the measurements [standard deviation (SD)] of the different experiments performed and are recorded in Table 2.

[3] = test system: SH-SY5Y human neuroblastoma cell line; assay: cells; type: cell-based
Description: The data represents the mean of four different experiments ±SEM (*p<0.05).
The SH-SY5Y human neuroblastoma cell line was grown at 37° C. with 5% CO2 in DMEN (Dulbecco's Modified Eagle Medium) enriched with L-glutamine (2 mM), 1% non-essential amino acids, 1% Penicillin/Streptomycin and 10% foetal bovine serum. In the state of semi-confluence, the cells were treated with the Cdc7 inhibitor (compound 3) at different concentrations for 1.30 hours post-addition of the causative agent of the TDP-43 phosphorylation; ethacrynic acid (20 μM) (Sigma). At 24 hours, the cellular viability was evaluated with MTT ([3-(4,5-dimethylthiazol-2-yl)-2,5-diphenyltetrazolium bromide) following a described procedure (Denizot F, Lang R. J Immunol Methods. 1987; 89:271-7).

Chain of recombinant human Cdc7/DBF4 (O00311 whole entry): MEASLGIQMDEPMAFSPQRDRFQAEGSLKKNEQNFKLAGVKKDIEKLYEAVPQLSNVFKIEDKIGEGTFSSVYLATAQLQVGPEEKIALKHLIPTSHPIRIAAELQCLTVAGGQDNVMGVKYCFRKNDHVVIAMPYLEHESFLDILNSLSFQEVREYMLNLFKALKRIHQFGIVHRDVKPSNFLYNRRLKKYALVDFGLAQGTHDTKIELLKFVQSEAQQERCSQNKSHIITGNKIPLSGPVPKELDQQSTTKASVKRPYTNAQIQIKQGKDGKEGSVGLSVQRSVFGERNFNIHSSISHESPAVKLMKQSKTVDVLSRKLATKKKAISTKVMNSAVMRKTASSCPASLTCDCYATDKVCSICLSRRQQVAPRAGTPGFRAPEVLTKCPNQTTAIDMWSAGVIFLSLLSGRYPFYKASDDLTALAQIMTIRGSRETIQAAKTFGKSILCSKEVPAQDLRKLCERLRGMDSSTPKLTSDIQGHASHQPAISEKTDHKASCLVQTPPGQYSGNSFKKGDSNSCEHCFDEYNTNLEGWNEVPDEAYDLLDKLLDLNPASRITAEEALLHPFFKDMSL
Chain of recombinant human Cdc7/DBF4 (Q9UBU7 whole entry partner): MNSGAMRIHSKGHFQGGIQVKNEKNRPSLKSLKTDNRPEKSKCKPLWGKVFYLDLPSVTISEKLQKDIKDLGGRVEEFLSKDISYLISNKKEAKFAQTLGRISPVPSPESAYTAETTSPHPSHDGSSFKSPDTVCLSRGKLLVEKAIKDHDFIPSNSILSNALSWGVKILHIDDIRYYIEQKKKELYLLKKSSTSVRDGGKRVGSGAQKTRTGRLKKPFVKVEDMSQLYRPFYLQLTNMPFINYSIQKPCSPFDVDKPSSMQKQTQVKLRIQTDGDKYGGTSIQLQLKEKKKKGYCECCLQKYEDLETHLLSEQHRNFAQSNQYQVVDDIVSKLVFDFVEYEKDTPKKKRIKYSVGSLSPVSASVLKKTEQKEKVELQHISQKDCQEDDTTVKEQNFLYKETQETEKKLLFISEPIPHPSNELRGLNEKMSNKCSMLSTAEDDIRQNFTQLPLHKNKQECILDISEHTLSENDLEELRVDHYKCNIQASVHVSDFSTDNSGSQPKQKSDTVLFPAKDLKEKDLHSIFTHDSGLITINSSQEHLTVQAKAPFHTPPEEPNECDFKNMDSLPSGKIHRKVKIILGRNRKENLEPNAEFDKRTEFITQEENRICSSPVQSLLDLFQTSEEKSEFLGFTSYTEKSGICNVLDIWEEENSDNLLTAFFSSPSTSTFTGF

Compound | IC50 [1] | Papp at 2.5 h [2] | PAMPA prediction of the penetration into the central nervous system (CNS) [2] | Reversal of cell death caused by ethacrynic acid (neuroprotective effect, MTT viability) ([3]; SH-SY5Y cells, ethacrynic acid 20 μM, inhibitor at 10 μM, viability at 24 hours) | mortality at 20 µM ([3]; Homo sapiens, SH-SY5Y, 24 h, read-out: Cell mortality due to excess TDP-43 phosphorylation)
COc1ccc(C(=O)CSc2ncnc3[nH]cnc23)cc1 [compound 2, 1-(4-methoxyphenyl)-2-((9H-purin-6-yl)thio)-ethan-1-one] | 1080 nM | 2.5 ± 0.1 ×10⁻⁶ cm/s | CNS+/− | – | –
COc1cccc(C(=O)CSc2ncnc3[nH]cnc23)c1 [compound 4, 1-(3-methoxyphenyl)-2-((9H-purin-6-yl)thio)-ethan-1-one] | 1710 nM | 2.4 ± 1 ×10⁻⁶ cm/s | CNS+/− | – | –
O=C(CSc1ncnc2[nH]cnc12)c1ccc(I)cc1 [compound 5, 1-(4-iodophenyl)-2-((9H-purin-6-yl)thio)-ethan-1-one] | 380 nM | 10.5 ± 1.2 ×10⁻⁶ cm/s | CNS+ (permeable to the BBB (CNS+) if it has a permeability >4.48×10^−6 cm·s^−1) | – | –
Clc1ccccc1CCSc1ncnc2[nH]cnc12 [compound 8, 6-((2-chlorophenethyl)thio)-9H-purine] | – | 11.6 ± 0.5 ×10⁻⁶ cm/s | CNS+ (permeable to the BBB (CNS+) if it has a permeability >4.48×10^−6 cm·s^−1) | – | –
C=C(CC)C(=O)c1ccc(OCC(=O)O)c(Cl)c1Cl [ethacrynic acid, reference compound] | – | – | – | – | 40%

The remaining compounds from weak to strong by IC50 [1], led by results:

IC50 [1] | Papp at 2.5 h [2] | Compound | PAMPA prediction of the penetration into the central nervous system (CNS) [2] | Reversal of cell death caused by ethacrynic acid (neuroprotective effect, MTT viability) ([3]; SH-SY5Y cells, ethacrynic acid 20 μM, inhibitor at 10 μM, viability at 24 hours) | mortality at 20 µM ([3]; Homo sapiens, SH-SY5Y, 24 h, read-out: Cell mortality due to excess TDP-43 phosphorylation)
698 nM | 9.6 ± 0.8 ×10⁻⁶ cm/s | O=C(CSc1ncnc2[nH]cnc12)c1ccc2ccccc2c1 [compound 3, 1-(naphthalen-2-yl)-2-((9H-purin-6-yl)thio)-ethan-1-one] | CNS+ (permeable to the BBB (CNS+) if it has a permeability >4.48×10^−6 cm·s^−1) | this death is reversed | –
397 nM | 10.2 ± 0.5 ×10⁻⁶ cm/s | Fc1ccc(CCSc2ncnc3[nH]cnc23)cc1 [compound 9, 6-((4-fluorophenethyl)thio)-9H-purine] | CNS+ (permeable to the BBB (CNS+) if it has a permeability >4.48×10^−6 cm·s^−1) | – | –
305 nM | 10.6 ± 0.5 ×10⁻⁶ cm/s | Clc1cccc(CCSc2ncnc3[nH]cnc23)c1 [compound 7, 6-((3-chlorophenethyl)thio)-9H-purine] | CNS+ (permeable to the BBB (CNS+) if it has a permeability >4.48×10^−6 cm·s^−1) | – | –
234 nM | 4.5 ± 1.2 ×10⁻⁶ cm/s | c1ccc(CSc2ncnc3[nH]ccc23)cc1 [compound 10, 4-(benzylthio)-7H-pyrrolo[2,3-d]pyrimidine] | CNS+ (permeable to the BBB (CNS+) if it has a permeability >4.48×10^−6 cm·s^−1) | – | –
142 nM | 25.1 ± 1.3 ×10⁻⁶ cm/s | Clc1ccc(CCSc2ncnc3[nH]cnc23)cc1 [compound 6, 6-((4-chlorophenethyl)thio)-9H-purine] | CNS+ (permeable to the BBB (CNS+) if it has a permeability >4.48×10^−6 cm·s^−1) | – | –

Reference: US20210346388A1, “CDC7-Inhibiting Purine Derivatives and their use for the Treatment of Neurological Conditions” (CONSEJO SUPERIOR DE INVESTIGACIONES CIENTIFICAS (CSIC), priority 2018, published 2021)
